Assay results published in US20260242390A1, “TOTAL SYNTHESES OF PORTIMINE A AND ANALOGUES THEREOF AS SMALL MOLECULE MODULATORS OF NMD3” (priority 2023, published 2026).
“Also recorded” adds a separate entry of the source.

Target: T1, NMD3 (Homo sapiens, UniProt Q96D46)
T1 construct: endogenous in cells
T1 sequence (Q96D46 1-503): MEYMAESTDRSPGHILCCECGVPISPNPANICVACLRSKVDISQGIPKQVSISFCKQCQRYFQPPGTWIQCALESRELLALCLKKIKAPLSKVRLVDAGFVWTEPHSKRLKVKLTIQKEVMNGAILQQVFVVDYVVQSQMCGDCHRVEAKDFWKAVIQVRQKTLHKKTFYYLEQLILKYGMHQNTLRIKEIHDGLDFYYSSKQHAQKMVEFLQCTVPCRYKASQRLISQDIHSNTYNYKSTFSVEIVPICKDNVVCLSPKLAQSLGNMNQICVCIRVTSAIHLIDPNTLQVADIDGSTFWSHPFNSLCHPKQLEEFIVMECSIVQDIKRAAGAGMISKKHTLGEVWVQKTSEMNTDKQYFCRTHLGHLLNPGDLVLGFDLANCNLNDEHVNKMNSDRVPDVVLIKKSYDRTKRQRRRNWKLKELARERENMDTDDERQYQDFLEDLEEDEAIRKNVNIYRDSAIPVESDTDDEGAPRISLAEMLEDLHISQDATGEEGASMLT
Test: Chemo-precipitation / photoaffinity labeling of NMD3
Assay type: binding
Settings: for competition of PA-DA labeling of endogenous NMD3 / labeling of endogenous NMD3 by probe: Jurkat and HCC1806 cells; for competition of PA-DA labeling of endogenous NMD3: PA-DA 0.5 uM, competitor 5 uM; for labeling of endogenous NMD3 by probe: probe 0.5 uM, UV irradiated
Description: FIG. 4. Validation of NMD3 as target of Portimine A by Chemo-precipitation (ChP). Portimine A mouse pharmacokinetic properties and fast acting in vitro cell-based target engagement properties based on compound wash-out. (A) Pharmacokinetic studies of mouse intraperitoneal (i.p.) and oral (p.o.) administration for portimine (n=3). […] Impact of PA [0.3 or 1 mg/kg intraperitoneally] on MC38 tumor growth in WT mice (n=6). (C) Kaplan-Myer survival curve of WT MC38 tumor-bearing mice (n=6) after treatment with PA as described in (D). Mice were euthanized when tumor area exceeded 2000 mm^3. Statistical analysis was performed using ANOVA analysis followed by multiple comparisons test, * p≤0.05. Treatment condition: Jurkat (60 M per condition); PA-DA/ePA-DA concentration: 0.5 uM, PA or ePA: 5 uM; Incubate with probe with or without competitors (PA, ePA) for 30 min; UV irradiated for 20 min. (0.5 uM PA-DA add a no-UV condition); Standard pulldown & biotin-enrichment and western blot analysis (Elute condition: 2× sample buffer+500 uM biotin, boil for 20 mins); Primary antibody NMD3 (ProteinTech, 1:150), Actin (BioRad, 1:10000).
FIG. 5. […] (I, J) Confirmation of PA-DA engagement of NMD3 in Jurkat and HCC1806 cells. […] Treatment condition: Jurkat (5M per well). Portimine A concentration: 2 nM-1000 nM; In total treat cell for 12 hours.
• 1) Portimine A and its functional analogs show stereo-selective acute toxicity in cancer cells (FIG. 1). […] (B) Structure of portimine related analogs: phenyl-portimine A (Ph-PA, 36) and epi-portimine A (ePA, 38). Structure of fully functionalized portimine A-based epimeric probe pair: portimine A-diazirine-alkyne (PA-DA, 35-2) and epi-portimine A-diazirine-alkyne (ePA-DA, 35-1). (C) Cell viability analysis of portimine A and analogs. Jurkat cells were treated with increasing concentrations of portimine A and analogs for 24 hours. All presented data as mean of biological replicated experiments (n=3). […] Jurkat cells were treated with portimine A or analogs for 12 hours at 10 nM. […] Structurally related negative control ePA and PB are non-toxic in all cell types in the current concentrate range. PBMCs (25k per well), Jurkat (10k per well). […] Cell cycle analysis in Jurkat cells (FIG. 2). Jurkat cells were treated with 10 nM of indicated compounds for 24 hours, and propodium iodide was used to identify different stages of cells by flow cytometry. […] (A) PA and Ph-PA show less toxic to healthy PBMCs compared to Jurkat cells. […] (B) Immunoblot of caspase-3 in Jurkat and PBMCs with indicated conditions. […] (A) Pharmacokinetic studies of mouse intraperitoneal (i.p.) and oral (p.o.) administration for portimine (n=3). […] Impact of PA [0.3 or 1 mg/kg intraperitoneally] on MC38 tumor growth in WT mice (n=6). (C) Kaplan-Myer survival curve of WT MC38 tumor-bearing mice (n=6) after treatment with PA as described in (D). Mice were euthanized when tumor area exceeded 2000 mm^3. Statistical analysis was performed using ANOVA analysis followed by multiple comparisons test, * p≤0.05. Treatment condition: Jurkat (60 M per condition); PA-DA/ePA-DA concentration: 0.5 uM, PA or ePA: 5 uM; Incubate with probe with or without competitors (PA, ePA) for 30 min; UV irradiated for 20 min. (0.5 uM PA-DA add a no-UV condition), Standard pulldown & biotin-enrichment and western blot analysis (Elute condition: 2× sample buffer+500 uM biotin, boil for 20 mins); Primary antibody NMD3 (ProteinTech, 1:150), Actin (BioRad, 1:10000). […] Chemical proteomic profiling with PA-DA in Jurkat cells (A, B, C, G) and HCC1806 cells (D, E, F, H) show NMD3 is the primary target candidate of portimine A. Volcano plot in panels A and D show protein competition in cells treated with active photoaffinity probe PA-DA (500 nM) and DMSO or the active competitor portimine A (PA, […]), dotted lines indicate threshold of fold change <4, p-value>0.05. […] (I, J) Confirmation of PA-DA engagement of NMD3 in Jurkat and HCC1806 cells. […] Treatment condition: Jurkat (5M per well). […]

| SMILES | competition of PA-DA labeling of endogenous NMD3 | binding to NMD3 (target validation) (endogenous NMD3, Jurkat, pulldown and western blot) | nature of the interaction with NMD3 (no-UV control) | labeling of endogenous NMD3 by probe | binding to recombinantly overexpressed NMD3 in cells |
| --- | --- | --- | --- | --- | --- |
| C=CC1=C[C@@H]2[C@@H]3O[C@]4(CC[C@H](O4)C(C)C[C@@H](O)C3=O)CC(O)C3=NCC[C@@]32CC1 (stereo partly shown) [PA, portimine A] | blocked | selectively binds; also recorded: confirmed as a target | non-covalent | – | – |
| C=CC1=C[C@@H]2[C@@H]3O[C@]4(CC[C@H](O4)C(C)C[C@@H](O)C3=O)C[C@@H](O)C3=NCC[C@@]32CC1 (stereo partly drawn) [ePA, epi-portimine A] | not | – | – | – | – |
| C#CCCC1(CCNC(=O)c2ccc(C3=C[C@@H]4[C@@H]5O[C@]6(CC[C@H](O6)C(C)C[C@@H](O)C5=O)C[C@@H](O)C5=NCC[C@@]54CC3)cc2)N=N1 (stereo partly drawn) [ePA-DA, epi-portimine A-diazirine-alkyne] | – | – | – | not substantially labeled | – |
| C#CCCC1(CCNC(=O)c2ccc(C3=C[C@@H]4[C@@H]5O[C@]6(CC[C@H](O6)C(C)C[C@@H](O)C5=O)CC(O)C5=NCC[C@@]54CC3)cc2)N=N1 (stereo partly shown) [PA-DA, portimine A-diazirine-alkyne] | – | – | – | UV-dependent labeling | not observed |
